Data published in patent US20190160016A1, “Anti-Parasitic Compositions and Methods” (University of Canberra, priority 2016, published 2019).

Columns and labels:
Sarcoptes scabiei nits = experiment: ovicidal activity against scabies eggs (hatching rate)
Experimental: To determine the ovicidal activity of Manuka oil and its fraction, dilutions to 2.5% and 5% were made in olive oil. […] Six independent experiments were conducted on separate days.

[1] = test system: P. humanus capitis adults and nymphs; experiment: filter paper diffusion bioassay, pediculicidal activity; conditions: mean individual louse survival time, in vitro pediculicidal treatment
Description: Adults, nymphs, and nits of P. humanus capitis were collected from a population of children between the ages of 3 and 12, with the approval of their guardians, by raking a metal louse comb through sections of the scalp. Adult and nymph lice as well as nits (eggs) were obtained and pooled by carefully removing them from the metal teeth of the comb into clean plastic boxes. The children had not been treated with any pediculicide solution for at least the preceding month, using only the louse comb.
For testing the pediculicidal activity, a filter paper diffusion bioassay was made with adults and nymphs of the insect collected from heads no more than 4 hours before carrying out the assay. After careful selection under a dissecting microscope, 10 lice in a ratio of 8:2 adult:nymph III were placed on a filter paper disk (Whatman No 1; 9-cm diameter) on the lid of a Petri dish. Next, 0.5 ml of either (a) each test solution; (b) distilled water with Tween-20 (control); and (c) distilled water, Tween-20, and preserving agents (excipient control), were spread over the lice and filter paper for each group. The commercial lotions (containing tea tree oil and permethrin as chief active components) (0.5 ml) were simultaneously run as a positive controls. Three to nine replicates were conducted for each treatment. […] The number of dead lice were recorded for each dish.

Row | SMILES | Percentage inhibition, Day 4 (Sarcoptes scabiei nits; Day 4) | Percentage inhibition, Day 8 (Sarcoptes scabiei nits; Day 8) | ovicidal activity (in words) (Sarcoptes scabiei nits; nymph emergence, Table 2) | Mean survival time [1]
1 | CC[C@H](C)[C@H]1O[C@]2(CC[C@@H]1C)C[C@@H]1C[C@@H](C/C=C(\C)[C@@H](O[C@H]3C[C@H](OC)[C@@H](O[C@H]4C[C@H](OC)[C@@H](O)[C@H](C)O4)[C@H](C)O3)[C@@H](C)/C=C/C=C3\CO[C@@H]4[C@H](O)C(C)=C[C@@H](C(=O)O1)[C@]34O)O2 [Ivermectin (100 μ/μL), ivermectin] | 12.4 ± 5.0% | 9.8 ± 4.8% | poor ovicidal activity | 
2 | CC1(C)C(C=C(Cl)Cl)C1C(=O)OCc1cccc(Oc2ccccc2)c1 (stereo not shown) [Permethrin, permethrin] |  |  |  | 56.4 min
